1 molecule from publication PMC10368370, “Development of o-aminobenzamide salt derivatives for improving water solubility and anti-undifferentiated gastric cancer” (Frontiers in Pharmacology, 2023) can be followed below.

Entries after “also recorded” stand apart in the source; their conditions may differ.

For series [1], the system named is MDA-MB-468. The series can be described thus: MTT cytotoxicity / anti-proliferation assay. It is filed as cell-based. To be noted: MDA-MB-468, MTT, 72 h; read-out: IC50, cancer cell viability.
For series [2], the system named is HCT-116. The series is described as follows: MTT cytotoxicity / anti-proliferation assay. It is filed as cell-based. Particulars: HCT-116, MTT, 72 h; read-out: IC50, cancer cell viability.
Series [3] has as its system MCF-7. The series can be described thus: MTT cytotoxicity / anti-proliferation assay. It is filed as cell-based. Particulars: MCF-7, MTT, 72 h; read-out: IC50, cancer cell viability.
Series [4] deals with MDA-MB-231. The series is described as follows: MTT cytotoxicity / anti-proliferation assay. It is filed as cell-based. Particulars: MDA-MB-231, MTT, 72 h; read-out: IC50, cancer cell viability.
Series [5] in a line: Screening of F8 related organic salts (crystallinity, hygroscopicity, solubility, stability, irritability). To be noted: salt screening. It is filed as physicochemical. The source says:
The selection of salt form is a key step to the success of drug development, which requires a well-designed screening strategy to find the salt form that meets the target performance. Although there are many kinds of counter ions, the commonly used ones are very limited.

The nature of series [6]: In vivo acute toxicity study. Particulars: for LD50 at 14 days: both sexes, Kunming, mouse, in vivo. Also on record: species or system Kunming mice. The procedure:
We investigated the toxicity of F8·2HCl when administered in three different ways, and F8·2HCl was all dissolved with normal saline, and the concentration of intravenous and intraperitoneal injection was 8 mg/mL, and the concentration of intragastric administration was 10 mg/mL. Ninety Kunming mice (45 males and 45 females) weighing 18–22 g were divided into 15 groups (n = 6). The doses of F8·2HCl injected by tail vein were 40 mg/kg, 60 mg/kg, 90 mg/kg, 110 mg/kg, 135 mg/kg, 200 mg/kg, 300 mg/kg, 400 mg/kg and 500 mg/kg, respectively. Intraperitoneal injection of different doses of F8·2HCl were 200 mg/kg, 250 mg/kg, 300 mg/kg, 360 mg/kg and 500 mg/kg, respectively. We also added a dose of 600 mg/kg administered by gavage. All drugs administered were dissolved in normal saline. Toxicity was monitored for 14 days. During the monitoring period, the status of mice was observed and their body weight was recorded.
To evaluate the safety of F8·2HCl in vivo, acute toxicity studies were performed. First, six Kunming mice (half male and half female) were gavage with F8·2HCl at a single dose of 600 mg/kg.

For the molecule `O=C(NCc1ccc(NC(=O)c2cc(F)ccc2N2CCCC2)cc1)OCc1cccnc1` [F8·2HCl], the concentration for half-maximal inhibition (IC50) (as a rule, the point on the concentration scale where inhibition reaches its midpoint) in series [1] was 1.42 ± 0.19 µM; in series [2], 4.02 ± 0.28 µM; in series [3], 47.69 ± 0.15 µM; in series [4], 47 ± 0.62 µM. Also, in series [5], the Crystalline result is listed as “crystallization”. The Hygroscopic result in series [5] is given as “Almost no moisture absorption”. Moreover, the Stability result in series [5] is “remain stable under high temperature (80°C), acid, alkaline, oxidation and reduction conditions; also recorded: Keep stable in extreme environment”. The Solubility result in series [5] (water) was “Soluble”. Further, the “HE staining of heart, liver, spleen, lung, kidney” value in series [6] (200 mg/kg intraperitoneal injection) and in series [6] (600 mg/kg oral administration) was “intact without any lesions” each time. For the same molecule, the 50% lethal dose (LD50) (usually the dose expected to kill half of the subjects tested) at 14 days in series [6] (ip, intraperitoneal injection, KM mice, 14 days) turned out to be 303 mg/kg; in series [6] (intravenous injection, KM mice, 14 days), 153 mg/kg. Also, the “survival and abnormal reactions” value in series [6] (single dose 600 mg/kg by gavage, KM mice, 14 days) was “All the mice survived 14 days without any abnormal reactions”.
